Source: US4168379A, “Pyridin-3-ols” (BASF Aktiengesellschaft, priority 1977, dated 1979)

Legend:
[1] = tested on: Aconitine-induced arrhythmia; experiment: animal or person; assay type: in vivo, rats (Sprague Dawley strain); conditions: for ED50: Rattus norvegicus, po, 1 h, read-out: ED 50: dose, administered orally, which prolongs the duration of aconitine infusion by 50%; for antiarrhythmic action (in words): as such and/or as acid addition salts
Protocol: (§1) To determine the anti-arrhythmic activity, the drugs were administered orally to rats (Sprague Dawley strain, weight […]) 45 minutes before the start of the narcosis.
(§2) The animals were narcotized with thiobutabartital (100 mg/kg administered intraperitoneally). The arrhythmogenic substance used was aconitine, which was administered by intravenous infusion (at a rate of 0.005 mg/kg. min) 60 minutes after administration of the test substance. In the case of untreated animals (N=30), arrhythmias occurred after an average of 3.7±0.9 minutes, the commencement of which can be delayed by anti-arrhythmic agents, the delay depending on the dosage.
(§3) For a quantitative evaluation of the linear relation between log dose (mg/kg) of the test substances and the relative prolongation of the duration of aconitine infusion (Δ%), the dose which extended the duration of infusion by 50% (ED 50) was determined. The prior art anti-arrhythmic agent quinidine served as a comparative substance.

[2] = in vivo; assay type: in vivo, rats (Sprague Dawley strain); conditions: rat, in vivo; oral, rats; dose at which Δ% was determined; read-out: Maximum action: Dose (highest non-toxic dose)
Protocol: as §1, §2, §3

[3] = acute toxicity (LD 50, Probit analysis, death within 24 hours); conditions: mouse, in vivo; for LD50 at 24 h: ip, intraperitoneal, female Swiss mice; for selectivity ratio: footnote 7 formula given as drawing 13, values correspond to LD 50 (mice, i.p.) / ED 50 (rats, oral), read-out: Therapeutic range
Protocol: The acute toxicity was determined on groups of 10 or 20 female Swiss mice, weighing 20-26 g, the compounds being administered intraperitoneally.

With `Cc1nc(Cc2ccccc2)c2c(c1OCCCNC(C)C)COC2` [Example IV, 4-benzyl-6-methyl-1,3-dihydro-furo[3,4-c]pyridin-7-yl 3-isopropylamino-propyl ether] as the compound, how does the ED50 [1] read?
The ED50 was 28.9 mg/kg.

And the “antiarrhythmic action (in words)” value [1]?
The value was “have an antiarrhythmic action”.

And the MTD [2]?
Its MTD is 215 mg/kg.

What about the LD50 at 24 h [3] of the same compound?
Its LD50 at 24 h is 139 mg/kg.

What about the selectivity ratio [3] of the same compound?
The selectivity ratio was 4.81.

For `CN(C)CCCOc1c(Cc2ccccc2)nc(Cc2ccccc2)c2c1COC2` [III, 4,6-dibenzyl-1,3-dihydrofuro[3,4-c]pyridin-7-yl 3-dimethylaminopropyl ether], which ED50 [1] is on record?
The ED50 was 14.9 mg/kg.

What about the “antiarrhythmic action (in words)” value [1] of the same compound?
The value was “have an antiarrhythmic action”.

What about the MTD [2] of the same compound?
The MTD was 215 mg/kg.

What about the LD50 at 24 h [3] of the same compound?
The LD50 at 24 h was 98.3 mg/kg.

And the selectivity ratio [3]?
Its selectivity ratio is 6.6.

Which ED50 [1] does the source give for `C=C[C@H]1C[N@@]2CC[C@H]1C[C@@H]2[C@@H](O)c1ccnc2ccc(OC)cc12` [Quinidine, quinidine, reference compound] here?
Its ED50 is 42.3 mg/kg.

And the LD50 at 24 h [3]?
The LD50 at 24 h was 180 mg/kg.

Which results are given for `Cc1nc(Cc2ccccc2)c2c(c1OCCCCNC(C)C)COC2` [V, 4-benzyl-6-methyl-1,3-dihydro-furo[3,4-c]pyridin-7-yl 4-isopropylaminobutyl ether]?
ED50 [1]: 5.66 mg/kg; antiarrhythmic action (in words) [1]: have an antiarrhythmic action; MTD [2]: 100 mg/kg; LD50 at 24 h [3]: 99.3 mg/kg; selectivity ratio [3]: 17.5

For `Cc1nc(Cc2ccccc2)c2c(c1OCCC(C)CCNC(C)C)COC2` (centres unmarked) [VI, 4-benzyl-6-methyl-1,3-dihydrofuro[3,4-c]pyridin-7-yl 5-isopropylamino-(3-methylpentyl) ether], which ED50 [1] is on record?
The ED50 was 12.2 mg/kg.

And the “antiarrhythmic action (in words)” value [1]?
Its value is “have an antiarrhythmic action”.

What about the MTD [2] of the same compound?
Its MTD is 100 mg/kg.

What about the LD50 at 24 h [3] of the same compound?
Its LD50 at 24 h is 82.2 mg/kg.

What about the selectivity ratio [3] of the same compound?
Its selectivity ratio is 6.74.

With `CCN(CC)CCC(C)CCOc1c(C)nc(Cc2ccccc2)c2c1COC2` (centres unmarked) [VII, 4-benzyl-6-methyl-1,3-dihydro-furo[3,4-c]pyridin-7-yl 5-diethylamino-(3-methylpentyl) ether] as the compound, how does the ED50 [1] read?
The ED50 was 11.3 mg/kg.

What about the “antiarrhythmic action (in words)” value [1] of the same compound?
Its value is “have an antiarrhythmic action”.

What about the MTD [2] of the same compound?
Its MTD is 100 mg/kg.

And the LD50 at 24 h [3]?
Its LD50 at 24 h is 88.9 mg/kg.

And the selectivity ratio [3]?
Its selectivity ratio is 7.86.

For `Cc1nc(Cc2ccccc2)c2c(c1OCCCCNC(C)(C)C)COC2` [VIII, 4-benzyl-6-methyl-1,3-dihydrofuro[3,4-c]pyridin-7-yl 4-tert.-butylamino-butyl ether], which ED50 [1] is on record?
The ED50 was 9.29 mg/kg.

And the “antiarrhythmic action (in words)” value [1]?
Its value is “have an antiarrhythmic action”.

And the MTD [2]?
The MTD was 46.4 mg/kg.

What about the LD50 at 24 h [3] of the same compound?
The LD50 at 24 h was 73.9 mg/kg.

And the selectivity ratio [3]?
Its selectivity ratio is 7.95.
